Assay results as given in PMC2826131 (Journal of the American Chemical Society, 2010).

What was measured:
ferrous nNOS heme domain = ferrous nNOS heme domain (Rattus norvegicus, UniProt P29476); assay: Ferrous difference spectrometry; format: binding; details: type of difference spectrum toward ferrous (dithionite-reduced) nNOS heme domain
rat nNOS = rat nNOS (Rattus norvegicus, UniProt P29476); assay: NOS hemoglobin capture assay, Ki from IC50; format: biochemical; details: 10 μM L-arginine, calculated from IC50, mean ± SD of 2-3 experiments
rat nNOS, sequence (P29476 whole entry, the tested form may be a part): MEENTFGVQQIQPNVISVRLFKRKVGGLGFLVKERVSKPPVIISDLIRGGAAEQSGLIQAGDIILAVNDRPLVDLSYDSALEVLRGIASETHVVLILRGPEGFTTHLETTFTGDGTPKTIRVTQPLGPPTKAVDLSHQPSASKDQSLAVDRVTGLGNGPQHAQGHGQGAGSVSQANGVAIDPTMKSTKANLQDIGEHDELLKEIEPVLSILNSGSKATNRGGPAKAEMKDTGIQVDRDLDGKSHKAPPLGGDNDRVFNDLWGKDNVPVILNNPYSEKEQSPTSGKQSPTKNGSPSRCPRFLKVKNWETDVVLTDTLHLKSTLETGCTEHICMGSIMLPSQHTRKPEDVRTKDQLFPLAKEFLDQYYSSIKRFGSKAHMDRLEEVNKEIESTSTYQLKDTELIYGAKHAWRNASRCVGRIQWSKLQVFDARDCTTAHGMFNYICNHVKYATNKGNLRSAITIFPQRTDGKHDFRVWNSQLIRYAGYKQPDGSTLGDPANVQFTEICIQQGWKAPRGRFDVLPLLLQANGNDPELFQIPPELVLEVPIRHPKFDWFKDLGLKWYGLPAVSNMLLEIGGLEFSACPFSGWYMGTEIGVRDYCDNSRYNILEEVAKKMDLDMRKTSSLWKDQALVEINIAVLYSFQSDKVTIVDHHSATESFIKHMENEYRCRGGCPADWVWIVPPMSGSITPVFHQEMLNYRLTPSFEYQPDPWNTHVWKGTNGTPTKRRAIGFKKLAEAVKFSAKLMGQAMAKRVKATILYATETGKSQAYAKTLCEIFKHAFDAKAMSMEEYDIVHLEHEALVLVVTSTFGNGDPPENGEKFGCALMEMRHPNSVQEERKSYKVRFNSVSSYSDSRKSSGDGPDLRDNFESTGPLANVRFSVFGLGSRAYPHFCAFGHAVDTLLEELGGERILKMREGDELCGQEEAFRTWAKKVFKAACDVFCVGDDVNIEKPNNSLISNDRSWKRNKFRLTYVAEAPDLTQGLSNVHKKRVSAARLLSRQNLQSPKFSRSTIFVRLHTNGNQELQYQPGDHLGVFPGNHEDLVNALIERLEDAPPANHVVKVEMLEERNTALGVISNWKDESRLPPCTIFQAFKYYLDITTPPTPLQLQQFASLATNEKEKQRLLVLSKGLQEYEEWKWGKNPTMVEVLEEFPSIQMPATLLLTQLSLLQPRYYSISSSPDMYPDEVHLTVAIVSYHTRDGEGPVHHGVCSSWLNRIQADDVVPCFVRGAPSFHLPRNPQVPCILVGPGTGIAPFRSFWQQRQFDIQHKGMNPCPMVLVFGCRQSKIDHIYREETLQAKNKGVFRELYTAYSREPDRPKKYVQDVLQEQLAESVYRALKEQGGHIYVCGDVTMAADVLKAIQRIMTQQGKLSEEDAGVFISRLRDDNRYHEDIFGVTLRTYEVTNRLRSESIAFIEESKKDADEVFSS

ferric nNOS heme domain = ferric nNOS heme domain (Rattus norvegicus, UniProt P29476); assay: Ferric difference spectrometry; format: binding; details: type of difference spectrum toward ferric nNOS heme domain
ferric nNOS heme domain, sequence (P29476 297-718 limits assumed): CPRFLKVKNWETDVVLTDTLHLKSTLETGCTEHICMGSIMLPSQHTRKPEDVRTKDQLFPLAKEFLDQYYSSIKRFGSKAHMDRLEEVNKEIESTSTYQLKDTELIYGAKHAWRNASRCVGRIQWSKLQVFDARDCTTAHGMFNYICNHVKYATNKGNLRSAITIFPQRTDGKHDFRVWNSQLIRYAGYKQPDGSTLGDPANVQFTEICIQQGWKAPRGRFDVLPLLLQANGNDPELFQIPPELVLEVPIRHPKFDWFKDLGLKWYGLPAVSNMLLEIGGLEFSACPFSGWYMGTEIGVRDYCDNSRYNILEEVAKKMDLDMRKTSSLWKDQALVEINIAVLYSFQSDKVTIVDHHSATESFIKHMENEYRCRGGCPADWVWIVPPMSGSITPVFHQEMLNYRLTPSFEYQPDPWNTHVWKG

ferrous nNOS heme domain, sequence (P29476 297-718 limits assumed): as above

Compound	Fe^2+ type (ferrous nNOS heme domain)	Ki (rat nNOS) [µM]	Fe^3+ type (ferric nNOS heme domain)
c1c[nH]cn1 [Imidazole]	I	29.7 ± 0.8	–
NC(=NCCC[C@H](N)C(=O)O)N[N+](=O)[O-] [L-Nitroarginine]	I	–	I
